# ChEMBL document CHEMBL5728544, “Compounds and methods for the targeted degradation of interleukin-1 receptor- associated kinase 4 polypeptides” (2021)
# Biological target: T1, Interleukin-1 receptor-associated kinase 4 (Homo sapiens, UniProt Q9NWZ3)
# T1 sequence (Q9NWZ3 whole entry): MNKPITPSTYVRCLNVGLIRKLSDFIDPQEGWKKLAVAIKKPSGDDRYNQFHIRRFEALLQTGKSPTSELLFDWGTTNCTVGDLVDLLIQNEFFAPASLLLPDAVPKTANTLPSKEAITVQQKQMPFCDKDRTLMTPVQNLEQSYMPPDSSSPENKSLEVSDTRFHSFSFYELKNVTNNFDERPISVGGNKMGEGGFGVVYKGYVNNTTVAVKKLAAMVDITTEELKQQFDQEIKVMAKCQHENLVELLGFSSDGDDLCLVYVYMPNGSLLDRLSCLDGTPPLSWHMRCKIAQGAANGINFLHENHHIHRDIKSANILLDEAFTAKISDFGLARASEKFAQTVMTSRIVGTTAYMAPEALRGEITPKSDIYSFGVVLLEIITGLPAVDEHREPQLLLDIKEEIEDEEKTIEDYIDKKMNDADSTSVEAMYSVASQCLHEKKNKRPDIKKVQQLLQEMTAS
# Assay: Biochemical Assay: A Z′-Lyte assay based on a fluorescence resonance energy transfer (FRET) readout was developed for measuring IRAK4-dependent phosphorylation of a FRET-peptide substrate as described by Thermo Fisher Scientific (Grand Island, N.Y.). At a starting concentration of 1.5 mM, the identified compounds were serially diluted with 100% dimethyl sulfoxide (DMSO) in 3-fold increments, into Greiner bio-one 96-well plates (cat. #: 650201, Greiner bio-one, Monroe, N.C.). Compounds were then transferred to intermediate Greiner bio-one 96-well plates and diluted 10-fold with Kinase assay buffer (25 mM HEPES, pH 7.5, 10 mM MgCl2, 10 mM MnCl2, 1 mM EGTA, and 0.01% Brij-35, 2 mM DTT). Three μL of the serially diluted compounds were then transferred in duplicate to low-volume 384-well black proxiplates (cat. #: 6008269; Perkin Elmer, Akron, Ohio), to give duplicate twelve-point concentration curves. Six μl of a 2.5× solution of IRAK4 enzyme (cat #: 40064, BPS Bioscience, San Diego, Calif.) in kinase buffer was added to each well, followed by a 10 minutes pre-incubation step. Reactions were initiated by adding 6 μl of a 2.5× substrate mix of ATP and Z′-Lyte Ser/Thr 7 peptide (cat. #: PV3180, Thermo Fisher Scientific, Grand Island, N.Y.) and proceeded at room temperature for 1 hour. […]
compound,measurement,value
O=C1CCC(N2C(=O)c3ccc(OC4CCC(CN5CCN(Cc6ccc7c(c6)nc(NC(=O)c6cccc(C(F)(F)F)c6)n7C6CCC(CO)CC6)CC5)CC4)cc3C2=O)C(=O)N1 (stereo unspecified),IC50,< 30 nM
